Experimental data taken from patent US9624215B2, “Amine derivative or salt thereof” (TOYAMA CHEMICAL CO., LTD., priority 2012, dated 2017).

Tested on: normal human neonatal foreskin epidermal keratinocytes (NHEK-F)
Experiment: Cell proliferation inhibition test
Assay type: cell-based
Conditions: Keratinocyte, 72 h, NHEK-F cells, three days incubation, ATPlite or CellTiterGlo, read-out: IC50 (concentration of the compound at which the cell count is reduced by 50%)
Outline: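 IC50 is the compound level halving cell count relative to untreated wells, with counts from ATP-based luminescence (ATPlite or CellTiterGlo). Readout followed 3 days of compound exposure of overnight-attached neonatal foreskin keratinocytes (2×10^3/well, Humedia-EG2 medium).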

`Cn1ccc2cc(Nc3ncc(C4CC4)cc3C(=O)O)cc(-c3cccc(F)c3)c21` [Example 465, 5-cyclopropyl-2-((7-(3-fluorophenyl)-1-methyl-1H-indol-5-yl)amino)nicotinic acid] and `Cn1ccc2cc(Nc3ncc(C4CC4)cc3C(=O)O)cc(-c3cccc(C#N)c3)c21` [Example 483, 2-((7-(3-cyanophenyl)-1-methyl-1H-indol-5-yl)amino)-5-cyclopropylnicotinic acid] cannot be ordered by IC50: at most 10 nM for the first, at most 10 nM for the second.

`O=C(O)c1cc(C2CC2)cnc1Nc1cc(-c2ccccc2)c2[nH]ccc2c1` [Example 227, 5-cyclopropyl-2-((7-phenyl-1H-indol-5-yl)amino)nicotinic acid] and `O=C(O)c1cc(C2CC2)cnc1Nc1ccc2cccc(-c3ccccc3)c2c1` [Example 179, 5-cyclopropyl-2-((8-phenylnaphthalen-2-yl)amino)nicotinic acid] cannot be ordered by IC50: 10 to 100 nM for the first, at most 10 nM for the second.

`Cc1cc2cc(Nc3ncc(C4CC4)cc3C(=O)O)ccc2n1C` [Example 391, 5-cyclopropyl-2-((1,2-dimethyl-1H-indol-5-yl)amino)nicotinic acid] and `Cn1c(C(C)(C)C)cc2cc(Nc3ncc(C4CC4)cc3C(=O)O)ccc21` [Example 157, 2-((2-(tert-butyl)-1-methyl-1H-indol-5-yl)amino)-5-cyclopropylnicotinic acid] fall in the same range of IC50: 100 to 1000 nM for the first, 100 to 1000 nM for the second.

`O=C(O)c1cc(Cl)ccc1Nc1ccc2c(ccn2Cc2cccc(OCc3ccc4ccccc4n3)c2)c1` [Example 249, 5-chloro-2-((1-(3-(quinolin-2-ylmethoxy)benzyl)-1H-indol-5-yl)amino)benzoic acid] and `O=C(O)c1cc(Cl)ccc1Nc1ccc2c(ccn2Cc2ccc3ccccc3n2)c1` [Example 251, 5-chloro-2-((1-(quinolin-2-ylmethyl)-1H-indol-5-yl)amino)benzoic acid] cannot be ordered by IC50: at most 10 nM for the first, 10 to 100 nM for the second.

`O=C(O)c1cc(C2CC2)cnc1Nc1ccc2c(ccn2CC2CCCCO2)c1` (centres unmarked) [Example 414, 5-cyclopropyl-2-((1-((tetrahydro-2H-pyran-2-yl)methyl)-1H-indol-5-yl)amino)nicotinic acid] and `O=C(O)c1cc(C2CC2)cnc1Nc1ccc2c(ccn2C(=O)C2CCCCC2)c1` [Example 583, 2-((1-(cyclohexylcarbonyl)-1H-indol-5-yl)amino)-5-cyclopropylnicotinic acid] fall in the same range of IC50: 10 to 100 nM for the first, 10 to 100 nM for the second.

`COc1cccc(-c2cn(C)c3ccc(Nc4ncc(C5CC5)cc4C(=O)O)cc23)c1` [Example 577, 5-cyclopropyl-2-((3-(3-methoxyphenyl)-1-methyl-1H-indol-5-yl)amino)nicotinic acid] and `COc1ccc(-c2cn(C)c3ccc(Nc4ncc(C5CC5)cc4C(=O)O)cc23)cc1` [Example 579, 5-cyclopropyl-2-((3-(4-methoxyphenyl)-1-methyl-1H-indol-5-yl)amino)nicotinic acid] fall in the same range of IC50: 100 to 1000 nM for the first, 100 to 1000 nM for the second.

`Cn1ccc2cc(Nc3ncc(C4CC4)cc3C(=O)O)cc(-c3ccncc3F)c21` [Example 589, 5-cyclopropyl-2-((7-(3-fluoropyridin-4-yl)-1-methyl-1H-indol-5-yl)amino)nicotinic acid] and `Cn1ccc2cc(Nc3ncc(C4CC4)cc3C(=O)O)cc(-c3cc(F)cc(F)c3)c21` [Example 586, 5-cyclopropyl-2-((7-(3,5-difluorophenyl)-1-methyl-1H-indol-5-yl)amino)nicotinic acid] cannot be ordered by IC50: 10 to 100 nM for the first, at most 10 nM for the second.

`O=C(O)c1cc(C2CC2)cnc1Nc1cccc2c(-c3ccccc3)ccnc12` [Example 187, 5-cyclopropyl-2-((4-phenylquinolin-8-yl)amino)nicotinic acid] and `O=C(O)c1cc(C2CC2)cnc1Nc1cccc2c(-c3ccccc3)cccc12` [Example 367, 5-cyclopropyl-2-((5-phenylnaphthalen-1-yl)amino)nicotinic acid] cannot be ordered by IC50: at most 10 nM for the first, at most 10 nM for the second.

First: COc1ccccc1-c1cn(C)c2ccc(Nc3ncc(C4CC4)cc3C(=O)O)cc12 [Example 581, 5-cyclopropyl-2-((3-(2-methoxyphenyl)-1-methyl-1H-indol-5-yl)amino)nicotinic acid]
Second: O=C(O)c1cc(C2CC2)cnc1Nc1ccc2ncnc(-c3ccccc3)c2c1 [Example 533, 5-cyclopropyl-2-((4-phenylquinazolin-6-yl)amino)nicotinic acid]
The IC50 of the first is lower: 10 to 100 nM for the first, 100 to 1000 nM for the second.

`Cn1ccc2cc(Nc3ncc(C4CC4)cc3C(=O)O)cc(-c3ccc(OC(F)(F)F)cc3)c21` [Example 493, 5-cyclopropyl-2-((1-methyl-7-(4-(trifluoromethoxy)phenyl)-1H-indol-5-yl)amino)nicotinic acid] and `Cn1ccc2cc(Nc3ncc(C4CC4)cc3C(=O)O)cc(-c3cccc(C(F)(F)F)c3)c21` [Example 480] cannot be ordered by IC50: at most 10 nM for the first, at most 10 nM for the second.

`CC(C)Cn1ccc2cc(Nc3ncc(C4CC4)cc3C(=O)O)cnc21` [Example 547, 5-cyclopropyl-2-((1-isobutyl-1H-pyrrolo(2,3-b)pyridin-5-yl)amino)nicotinic acid] and `O=C(O)c1cc(C2CC2)cnc1Nc1cnc2c(ccn2Cc2ccccc2)c1` [Example 545, 2-((1-benzyl-1H-pyrrolo(2,3-b)pyridin-5-yl)amino)-5-cyclopropylnicotinic acid] cannot be ordered by IC50: 10 to 100 nM for the first, at most 10 nM for the second.

First: O=C(O)c1cc(C2CC2)cnc1Nc1ccc2c(ccn2Cc2cccnc2)c1 [Example 137, 5-cyclopropyl-2-((1-(pyridin-3-ylmethyl)-1H-indol-5-yl)amino)nicotinic acid]
Second: O=C(O)c1cc(C2CC2)cnc1Nc1ccc2c(ccn2Cc2ccncc2)c1 [Example 148, 5-cyclopropyl-2-((1-(pyridin-4-ylmethyl)-1H-indol-5-yl)amino)nicotinic acid]
The IC50 of the first is lower: 10 to 100 nM for the first, 100 to 1000 nM for the second. The first is the more potent here.

First: O=C(O)c1cc(C2CC2)cnc1Nc1ccc2c(ccn2CCCC(F)(F)F)c1 [Example 616, 5-cyclopropyl-2-((1-(4,4,4-trifluorobutyl)-1H-indol-5-yl)amino)nicotinic acid]
Second: COCCn1ccc2cc(Nc3ncc(C4CC4)cc3C(=O)O)ccc21 [Example 129, 5-cyclopropyl-2-((1-(2-methoxyethyl)-1H-indol-5-yl)amino)nicotinic acid]
The IC50 of the first is lower: 10 to 100 nM for the first, 100 to 1000 nM for the second. The first is the more potent here.

`Cn1ccc2cc(Nc3ncc(C4CC4)cc3C(=O)O)cc(C3=CCCCC3)c21` [Example 504] and `Cn1ccc2cc(Nc3ncc(C4CC4)cc3C(=O)O)cc(C3CC3)c21` [Example 409, 5-cyclopropyl-2-((7-cyclopropyl-1-methyl-1H-indol-5-yl)amino)nicotinic acid] cannot be ordered by IC50: at most 10 nM for the first, 10 to 100 nM for the second.

`Cn1ccc2cc(Nc3ncc(C4CC4)cc3C(=O)O)cc(CCC3CCCCC3)c21` [Example 593, 2-((7-(2-cyclohexylethyl)-1-methyl-1H-indol-5-yl)amino)-5-cyclopropylnicotinic acid] and `COCCCc1cc(Nc2ncc(C3CC3)cc2C(=O)O)cc2ccn(CC3CC3)c12` [Example 609, 5-cyclopropyl-2-((1-(cyclopropylmethyl)-7-(3-methoxypropyl)-1H-indol-5-yl)amino)nicotinic acid] cannot be ordered by IC50: at most 10 nM for the first, at most 10 nM for the second.

`CC(C)n1ccc2ccc(Nc3ncc(C4CC4)cc3C(=O)O)cc21` [Example 519, 5-cyclopropyl-2-((1-isopropyl-1H-indol-6-yl)amino)nicotinic acid] and `O=C(O)c1cc(C2CC2)cnc1Nc1ccc2c(ccn2C(=O)c2ccccc2)c1` [Example 575, 2-((1-benzoyl-1H-indol-5-yl)amino)-5-cyclopropylnicotinic acid] fall in the same range of IC50: 10 to 100 nM for the first, 10 to 100 nM for the second.

`O=C(O)c1cc(C2CC2)ccc1Nc1ccc2[nH]cc(-c3ccccc3)c2c1` [Example 377, 5-cyclopropyl-2-((3-phenyl-1H-indol-5-yl)amino)benzoic acid] and `Cc1c(Nc2ncc(C3CC3)cc2C(=O)O)ccc2c1ccn2Cc1ccccc1` [Example 573] cannot be ordered by IC50: 10 to 100 nM for the first, at most 10 nM for the second.

`O=C(O)c1cc(C2CC2)cnc1Nc1ccc2c(ccn2Cc2ccccc2C(F)(F)F)c1` [Example 449, 5-cyclopropyl-2-((1-(2-(trifluoromethyl)benzyl)-1H-indol-5-yl)amino)nicotinic acid] and `O=C(O)c1cc(C2CC2)cnc1Nc1ccc2c(ccn2CCCc2ccccc2)c1` [Example 618, 5-cyclopropyl-2-((1-(3-phenylpropyl)-1H-indol-5-yl)amino)nicotinic acid] cannot be ordered by IC50: 10 to 100 nM for the first, at most 10 nM for the second.

`O=C(O)c1cc(Cl)ccc1Nc1ccc2c(ccn2-c2cccnc2)c1` [Example 49, 5-chloro-2-((1-(pyridin-3-yl)-1H-indol-5-yl)amino)benzoic acid] and `O=C(O)c1cc(Cl)ccc1Nc1ccc2c(ccn2-c2ccccn2)c1` [Example 311, 5-chloro-2-((1-(pyridin-2-yl)-1H-indol-5-yl)amino)benzoic acid] cannot be ordered by IC50: 10 to 100 nM for the first, at most 10 nM for the second.

`O=C(O)c1cc(Cl)ccc1Nc1ccc2c(ccn2Cc2cccc(OCCN3CCOCC3)c2)c1` [Example 296, 5-chloro-2-((1-(3-(2-morpholinoethoxyl)benzyl)-1H-indol-5-yl)amino)benzoic acid] and `O=C(O)c1nc(C2CC2)ccc1Nc1ccc2c(ccn2Cc2ccccc2)c1` [Example 210, 3-((1-benzyl-1H-indol-5-yl)amino)-6-cyclopropylpicolinic acid] fall in the same range of IC50: 10 to 100 nM for the first, 10 to 100 nM for the second.

`O=C(O)c1cc(C2CC2)cnc1Nc1ccc2c(ccn2Cc2cc(C(F)(F)F)cc(C(F)(F)F)c2)c1` [Example 499, 2-((1-(3,5-bis(trifluoromethyl)benzyl)-1H-indol-5-yl)amino)-5-cyclopropylnicotinic acid] and `CCCn1ccc2c(Nc3ncc(C4CC4)cc3C(=O)O)cccc21` [Example 419, 5-cyclopropyl-2-((1-propyl-1H-indol-4-yl)amino)nicotinic acid] cannot be ordered by IC50: at most 10 nM for the first, 10 to 100 nM for the second.

`O=C(O)c1cc(Cl)ccc1Nc1cccc2c1ccn2Cc1ccccc1` [Example 6, 2-((1-benzyl-1H-indol-4-yl)amino)-5-chlorobenzoic acid] and `Cn1ccc2cc(Nc3ncc(C4CC4)cc3C(=O)O)cc(/C=C/C(C)(C)C)c21` [Example 594, 5-cyclopropyl-2-((7-((1E)-3,3-dimethylbut-1-en-1-yl)-1-methyl-1H-indol-5-yl)amino)nicotinic acid] cannot be ordered by IC50: 10 to 100 nM for the first, at most 10 nM for the second.
